Data reported in publication PMC9404989, “Design and Evaluation of Short Bovine Lactoferrin-Derived Antimicrobial Peptides against Multidrug-Resistant Enterococcus faecium” (Antibiotics, 2022).
Values after ≈ are worked out from the molar mass of the structure shown. Like-named read-outs stand apart in the source and are kept apart here. No end group written: not given here.

How the values were obtained:
E. faecalis OG1RF = test: MIC assay, E. faecalis OG1RF; assay type: cell-based; details: rifampin and fusidic acid resistant
Description: (§1) To determine the MICs of peptides, we used the broth microdilution method described by the Clinical and Laboratory Standards Institute. We made serial dilutions of 10× concentration (10 µL) for each peptide in duplicates in 96-well plates (Cat No. 3595, Corning, New York, NY, USA). We added 90 µL of logarithmic-phase bacteria at 5 × 10^5 CFU/mL (in BHI media) to the peptides and then incubated the plates at 37 °C for 18 h. We measured the OD600 absorbance readings using the Spectra Max i3x spectrophotometer (Molecular Devices, San Jose, CA, USA) and determined the MIC as the peptide concentration that inhibits the growth of bacteria.

S. aureus MW2 = test: microbe, parasite or virus in culture; assay type: cell-based, Staphylococcus aureus; details: for MIC S. aureus MW2: MW2, 18 h
Description: as §1

E. faecalis MMH594 = test: microbe, parasite or virus in culture; assay type: cell-based; details: for MIC E. faecalis MMH594: MMH594, 18 h
Description: as §1

E. faecalis V583 = test: microbe, parasite or virus in culture; assay type: cell-based; details: for MIC E. faecalis V583: V583, 18 h
Description: as §1

[1] = HPLC retention time on C18 reverse-phase column; assay type: physicochemical
Excerpt: Table 1 Physical parameters and the minimal inhibitory concentration (µg/mL) of designed peptides against E. faecium. | column: rT ^f (min)

E. faecium strain C68 [2] = test: microbe, parasite or virus in culture; assay type: cell-based, Enterococcus faecium
Description: as §1

E. faecium strain C68 [3] = test: microbe, parasite or virus in culture; assay type: cell-based, Enterococcus faecium; details: for MIC + CaCl2 (2.5 mM) / MIC + MgSO4 (1 mM) / MIC + NaCl (150 mM) / MIC + ZnSO4 (8 µM): strain C68, 18 h; for MIC: Enterococcus faecium, C68
Description: as §1
To investigate the activity of peptides in various salt concentrations, we included physiologically relevant salts in the BHI medium.

[4] = system: E. faecium strain C68 on porcine skin; test: Ex vivo porcine skin infection assay; parameters: species or system Enterococcus faecium; details: exponential cells
Excerpt: We evaluated the efficacy of designed lactoferrin AMPs in an ex vivo porcine skin model previously described with minor modifications. We first cleaned the shaved porcine skin (Fisher Scientific, Hampton, NH, USA) with 70% ethanol and then water, and glued polyethylene tubing (5 mm) (Nalgene VWR 228-0170, Radnor, PA, USA) to the skin samples with cyanoacrylate glue (Fisher Scientific, Hampton, NH, USA). Using disposable razors, we cut each piece of skin glued to the tube and inserted it into a 12-well tissue culture plate (Falcon, Cat No. 353182). We infected each skin with 1 × 10^6 CFU of exponential or persister E. faecium strain C68 cells in a total volume of 10 µL. Following an incubation of 1 h at 37 °C, we treated the skin with 50 µL with 5L and 6L at concentrations of 10× or 1× MIC. After an additional 4 h of incubation at 37 °C, we washed each tubing well with 250 µL of PBS (pH 7.4) containing 0.05% Triton X-100 to remove bacteria. After serially diluting the bacterial sample, we counted their CFUs.

E. faecium WC176 = test: organism not typed; assay type: cell-based, Enterococcus faecium; details: read-out: MIC WC176
Description: as §1

E. faecium D29 = test: microbe, parasite or virus in culture; assay type: cell-based, Enterococcus faecium
Description: as §1

E. faecium D24 = test: microbe, parasite or virus in culture; assay type: cell-based, Enterococcus faecium
Description: as §1

E. faecium E007 = test: microbe, parasite or virus in culture; assay type: cell-based, Enterococcus faecium; details: Enterococcus faecium
Description: as §1

E. faecium D25 = test: microbe, parasite or virus in culture; assay type: cell-based, Enterococcus faecium
Description: as §1

E. faecium D14 = test: microbe, parasite or virus in culture; assay type: cell-based, Enterococcus faecium
Description: as §1

Compound	MIC E. faecalis OG1RF (E. faecalis OG1RF) [µg/mL]	MIC S. aureus MW2 (S. aureus MW2) [µg/mL]	MIC E. faecalis MMH594 (E. faecalis MMH594) [µg/mL]	MIC E. faecalis V583 (E. faecalis V583) [µg/mL]	rT (HPLC retention time) [1] [min]	MIC EF C68 (E. faecium strain C68 [2]; strain C68, 18 h) [µg/mL]	MIC Media Only (E. faecium strain C68 [2]; strain C68, 18 h) [µg/mL]	MIC + CaCl2 (2.5 mM) (E. faecium strain C68 [3]) [µg/mL]	MIC + MgSO4 (1 mM) (E. faecium strain C68 [3]) [µg/mL]	MIC + NaCl (150 mM) (E. faecium strain C68 [3]) [µg/mL]	MIC + ZnSO4 (8 µM) (E. faecium strain C68 [3]) [µg/mL]	further results
LRWLWRRRWLWR-NH2 [Peptide 3L]	> 32	> 32	> 32	> 32	16.145	16	16	>32	8	16	4	–
RLWLWRRRWLWR-NH2 [Peptide 4L]	> 32	> 32	> 32	> 32	18.377	4	4	>32	8	8	4	–
RRWQWRLLLL-NH2 [Peptide 1L]	> 32	> 32	> 32	> 32	18.083	16	16	32	8	4	4	–
CNC(C)C1CCC(N)C(OC2C(N)CC(N)C(OC3OCC(C)(O)C(NC)C3O)C2O)O1 (stereo not shown) [Gentamicin, reference compound]	–	–	–	–	–	–	–	–	–	–	–	bacterial burden, control antibiotic [4]: ineffective in reducing the bacterial burden
CC1(C)S[C@@H]2[C@H](NC(=O)[C@H](N)c3ccccc3)C(=O)N2[C@H]1C(=O)O [Ampicillin, reference compound]	–	–	–	–	–	–	–	–	–	–	–	MIC (E. faecium WC176): > 32 µg/mL; MIC (E. faecium D29; Enterococcus faecium, D29; read-out: MIC D29): > 32 µg/mL; MIC (E. faecium D24; Enterococcus faecium, D24; read-out: MIC D24): > 32 µg/mL; MIC (E. faecium E007; E007, tetracycline-resistant strain, read-out: MIC E007): > 32 µg/mL; MIC (E. faecium strain C68 [2]; Enterococcus faecium, C68, 18 h; read-out: MIC EF C68): > 32 µg/mL; MIC (E. faecium strain C68 [2]; Enterococcus faecium, C68; BHI media only, 37 °C, 18 h; read-out: MIC Media Only): > 32 µg/mL; MIC (E. faecium D25; Enterococcus faecium, D25; read-out: MIC D25): > 32 µg/mL; MIC (E. faecium D14; Enterococcus faecium, D14; read-out: MIC D14): ≥ 32 µg/mL; MIC (E. faecium strain C68 [3]; BHI + 8 µM ZnSO4, read-out: MIC + ZnSO4 (8 µM)): > 32 µg/mL; MIC (E. faecium strain C68 [3]; BHI + 1 mM MgSO4, read-out: MIC + MgSO4 (1 mM)): > 32 µg/mL; MIC (E. faecium strain C68 [3]; BHI + 2.5 mM CaCl2, read-out: MIC + CaCl2 (2.5 mM)): > 32 µg/mL; MIC (E. faecium strain C68 [3]; BHI + 150 mM NaCl, read-out: MIC + NaCl (150 mM)): > 32 µg/mL
CN[C@H](CC(C)C)C(=O)N[C@H]1C(=O)N[C@@H](CC(N)=O)C(=O)N[C@H]2C(=O)N[C@H]3C(=O)N[C@H](C(=O)N[C@H](C(=O)O)c4cc(O)cc(O)c4-c4cc3ccc4O)[C@H](O)c3ccc(c(Cl)c3)Oc3cc2cc(c3O[C@@H]2O[C@H](CO)[C@@H](O)[C@H](O)[C@H]2O[C@H]2C[C@](C)(N)[C@H](O)[C@H](C)O2)Oc2ccc(cc2Cl)[C@H]1O [Vancomycin, reference compound]	–	–	–	–	–	–	–	–	–	–	–	MIC (E. faecium WC176): 16 µg/mL (≈ 11 µM); MIC (E. faecalis OG1RF; Enterococcus faecalis, OG1RF): > 32 µg/mL; MIC (S. aureus MW2; Staphylococcus aureus, MRSA, read-out: MIC S. aureus MW2): 1 µg/mL (≈ 0.69 µM); MIC (E. faecalis MMH594; Enterococcus faecalis, MMH594, read-out: MIC E. faecalis MMH594): > 32 µg/mL; MIC (E. faecalis V583; Enterococcus faecalis, V583, read-out: MIC E. faecalis V583): > 32 µg/mL; MIC (E. faecium D29; Enterococcus faecium, D29, read-out: MIC D29): 1 µg/mL (≈ 0.69 µM); MIC (E. faecium D24; Enterococcus faecium, D24, read-out: MIC D24): 1 µg/mL (≈ 0.69 µM); MIC (E. faecium E007; E007, read-out: MIC E007): 1 µg/mL (≈ 0.69 µM); MIC (E. faecium strain C68 [2]; Enterococcus faecium, C68, 18 h, read-out: MIC EF C68): > 32 µg/mL; MIC (E. faecium D25; Enterococcus faecium, D25, read-out: MIC D25): 1 µg/mL (≈ 0.69 µM); MIC (E. faecium D14; Enterococcus faecium, D14, read-out: MIC D14): 2 µg/mL (≈ 1.38 µM)
RRWLWRL-NH2 [Peptide 2L]	> 32	> 32	> 32	> 32	13.321	>32	>32	–	–	–	–	–
